Patent publication US8569302B2, “Inhibitors of flaviviridae viruses” (Gilead Sciences, Inc., priority 2009, dated 2013)

test system: human hepatoma Huh-7 cell line harboring a HCV replicon; test: HCV replicon assay (inhibition of viral replication, luciferase readout); type: cell-based; conditions: Hepatitis C virus, 72 h, Huh-7 HCV replicon cells, 3 days incubation
Procedure, shortened: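 Read-outs: luciferase luminescence for replication inhibition, corrected by ITMN-191 (100% inhibition) wells, and calcein AM fluorescence for cytotoxicity. Cells were treated for 3 days at 37 °C with ten 3-fold compound dilutions in 0.44% final DMSO. Percent inhibition relative to DMSO was fitted with a Hill equation to give EC50 and CC50.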

| Compound | inhibition at 2 µM [%] |
| --- | --- |
| C[C@@H]1CC[C@@H](C(=O)N(c2cc(C#CC(C)(C)C)sc2C(=O)O)[C@H]2CC[C@H](O[C@H]3CCOC3)CC2)[C@@H](O)C1 [Compound 309, 5-(3,3-dimethylbut-1-ynyl)-3-((1R,2S,4R)-2-hydroxy-4-methyl-N-(4-(tetrahydrofuran-3S-yloxy)cyclohexyl)cyclohexanecarboxamido)thiophene-2-carboxylic acid] | 100 |
| C[C@@H]1CC[C@@H](C(=O)N(c2cc(C#CC(C)(C)C)sc2C(=O)O)[C@H]2CC[C@H](O[C@@H]3CCOC3)CC2)[C@@H](O)C1 [Compound 310, 5-(3,3-dimethylbut-1-ynyl)-3-((1R,2S,4R)-2-hydroxy-4-methyl-N-(4-(tetrahydrofuran-3R-yloxy)cyclohexyl)cyclohexanecarboxamido)thiophene-2-carboxylic acid] | 100 |
| CC1CCC(C(=O)N(c2cc(C#CC(C)(C)COC3CCCCO3)sc2C(=O)O)C2CCC(Oc3ccccn3)CC2)CC1 (centres unmarked) [Compound 311, 5-[3,3-Dimethyl-4-(tetrahydro-pyran-2-yloxy)-but-1-ynyl]-3-{(4-methyl-cyclohexanecarbonyl)-[4-(pyridin-2-yloxy)-cyclohexyl]-amino}-thiophene-2-carboxylic acid] | 95.2 |
| CC(C)(C#Cc1cc(N(C(=O)[C@H]2CC[C@H](C)CC2)[C@H]2CC[C@H](OC3CCOC3)CC2)c(C(=O)O)s1)CCO (some centres unmarked) [Compound 314, 5-(5-Hydroxy-3,3-dimethyl-pent-1-ynyl)-3-{(4-methyl-cyclohexanecarbonyl)-[4-(tetrahydro-furan-3-yloxy)-cyclohexyl]-amino}-thiophene-2-carboxylic acid] | 99.9 |
| CC(C)(C)C#Cc1cc(N(C(=O)[C@H]2CC[C@H](C)CC2)[C@H]2CC[C@H](O[C@H]3COC[C@H]3O)CC2)c(C(=O)O)s1 [Compound 317, 5-(3,3-dimethyl-but-1-ynyl)-3-[[4-(4-cis-hydroxy-tetrahydro-furan-3-yloxy)-cyclohexyl]-(4-methyl-cyclohexanecarbonyl)-amino]-thiophene-2-carboxylic acid] | 100 |
| CC(C)(C)C#Cc1cc(N(C(=O)[C@H]2CC[C@H](C)CC2)[C@H]2CC[C@H](O[C@H]3COC[C@@H]3O)CC2)c(C(=O)O)s1 [Compound 318, 5-(3,3-Dimethyl-but-1-ynyl)-3-[[4-(4-trans-hydroxy-tetrahydro-furan-3-yloxy)-cyclohexyl]-(4-methyl-cyclohexanecarbonyl)-amino]-thiophene-2-carboxylic acid] | 99.7 |
| CC1CCC(C(=O)N(c2cc(C#CC(C)(C)C)sc2C(=O)O)[C@H]2CCN(CCOc3ccccn3)C2)CC1 (some centres unmarked) [Compound 321] | 99.9 |
| CC(C)(C)C#Cc1cc(N(C(=O)[C@H]2CC[C@H](C)CC2)[C@H]2CC[C@H](O[C@@H]3CCOC3)CC2)c(C(=O)O)s1 [Compound 322] | 100 |
| C=C1CCC(C(=O)N(c2cc(C#CC(C)(C)C)sc2C(=O)O)[C@H]2CC[C@H](Oc3cc(CN(C)C)ccn3)CC2)CC1 [Compound 325, 3-[[4-(4-dimethylaminomethyl-pyridin-2-yloxy)-cyclohexyl]-(4-methylene-cyclohexanecarbonyl)-amino]-5-(3,3-dimethyl-but-1-ynyl)-thiophene-2-carboxylic acid] | 100 |
| CC(C)(C)C#Cc1cc(N(C(=O)[C@H]2CC[C@H](C)CC2)[C@H]2CC[C@H](Oc3nccc(=O)[nH]3)CC2)c(C(=O)O)s1 [Compound 326, 5-(3,3-Dimethyl-but-1-ynyl)-3-{(4-methyl-cyclohexanecarbonyl)-[4-(6-oxo-1,6-dihydro-pyrimidin-2-yloxy)-cyclohexyl]-amino}-thiophene-2-carboxylic acid] | 99.9 |
| CC(C)(C)C#Cc1cc(N(C(=O)[C@H]2CC[C@H](C)CC2)[C@H]2CC[C@H](O[C@H]3CCOC3)CC2)c(C(=O)O)s1 [Compound 331, 5-(3,3-Dimethyl-but-1-ynyl)-3-{(trans-4-methyl-cyclohexanecarbonyl)-[4-(tetrahydro-furan-3(S)-yloxy)-trans-cyclohexyl]-amino}-thiophene-2-carboxylic acid] | 100 |
| CC(C)(C)C#Cc1cc(N(C(=O)[C@H]2CC[C@H](C)CC2)[C@H]2CC[C@@H](O[C@H]3CCOC3)CC2)c(C(=O)O)s1 [Compound 332, 5-(3,3-Dimethyl-but-1-ynyl)-3-{(trans-4-methyl-cyclohexanecarbonyl)-[4-(tetrahydro-furan-3(S)-yloxy)-cis-cyclohexyl]-amino}-thiophene-2-carboxylic acid] | 99.9 |
| CC1=CC[C@@H](C(=O)N(c2cc(C#CC(C)(C)C)sc2C(=O)O)[C@H]2CC[C@H](O[C@H]3CCOC3)CC2)CC1 [Compound 333] | 100 |
| CC1=CC[C@@H](C(=O)N(c2cc(C#CC(C)(C)C)sc2C(=O)O)[C@H]2CC[C@H](OC3CCOC3)CC2)CC1 (some centres unmarked) [Compound 334] | 99.9 |
| CC1=CC[C@H](C(=O)N(c2cc(C#CC(C)(C)C)sc2C(=O)O)[C@H]2CC[C@H](OC3CCOC3)CC2)CC1 (some centres unmarked) [Compound 335] | 99.9 |
| CC1=CC[C@H](C(=O)N(c2cc(C#CC(C)(C)C)sc2C(=O)O)[C@H]2CC[C@H](O[C@H]3CCOC3)CC2)CC1 [Compound 336] | 100 |
| CC1=CC[C@@H](C(=O)N(c2cc(C#CC(C)(C)C)sc2C(=O)O)[C@H]2CC[C@H](Oc3cc(CN(C)C)ccn3)CC2)CC1 [Compound 337, 3-[[4-(4-Dimethylaminomethyl-pyridin-2-yloxy)-trans-cyclohexyl]-(4-methyl-cyclohex-3-enecarbonyl)-amino]-5-(3,3-dimethyl-but-1-ynyl)-thiophene-2-carboxylic acid] | 100 |
| CN(C)Cc1ccnc(O[C@H]2CC[C@H](N(c3cc(C#CC4(C(F)(F)F)CCC4)sc3C(=O)O)C(=O)[C@H]3CC[C@H](C)CC3)CC2)c1 [Compound 338, 3-((1r,4R)—N-((1r,4R)-4-(4-((dimethylamino)methyl)pyridin-2-yloxy)cyclohexyl)-4-methylcyclohexanecarboxamido)-5-((1-(trifluoromethyl)cyclobutyl)ethynyl)thiophene-2-carboxylic acid] | 99.9 |
| C[C@H]1CC[C@H](C(=O)N(c2cc(C#CC3(C(F)(F)F)CCC3)sc2C(=O)O)[C@H]2CC[C@H](Oc3ccc(O)nn3)CC2)CC1 [Compound 339, 3-((1r,4R)—N-((1r,4R)-4-(6-hydroxypyridazin-3-yloxy)cyclohexyl)-4-methylcyclohexanecarboxamido)-5-((1-(trifluoromethyl)cyclobutyl)ethynyl)thiophene-2-carboxylic acid] | 99.9 |
| CN(C)Cc1ccnc(O[C@H]2CC[C@H](N(c3cc(C#CC4(C(F)(F)F)CC4)sc3C(=O)O)C(=O)[C@H]3CC[C@H](C)CC3)CC2)c1 [Compound 340, 3-((1r,4R)—N-((1r,4R)-4-(4-((dimethylamino)methyl)pyridin-2-yloxy)cyclohexyl)-4-methylcyclohexanecarboxamido)-5-((1-(trifluoromethyl)cyclopropyl)ethynyl)thiophene-2-carboxylic acid] | 100 |
| CN(C)Cc1ccnc(O[C@H]2CC[C@H](N(c3cc(C#CC(C)(C)C(F)(F)F)sc3C(=O)O)C(=O)[C@H]3CC[C@H](C)CC3)CC2)c1 [Compound 341, 3-((1r,4R)—N-((1r,4R)-4-(4-((dimethylamino)methyl)pyridin-2-yloxy)cyclohexyl)-4-methylcyclohexanecarboxamido)-5-(4,4,4-trifluoro-3,3-dimethylbut-1-ynyl)thiophene-2-carboxylic acid] | 100 |
| C[C@H]1CC[C@H](C(=O)N(c2cc(C#CC3(C(F)(F)F)CC3)sc2C(=O)O)[C@H]2CC[C@H](Oc3ccc(O)nn3)CC2)CC1 [Compound 342, 3-((1r,4R)—N-((1r,4R)-4-(6-hydroxypyridazin-3-yloxy)cyclohexyl)-4-methylcyclohexanecarboxamido)-5-((1-(trifluoromethyl)cyclopropyl)ethynyl)thiophene-2-carboxylic acid] | 100 |
| CC(C)(C#Cc1cc(N(C(=O)[C@H]2CC[C@H](C)CC2)[C@H]2CC[C@H](Oc3ccc(O)nn3)CC2)c(C(=O)O)s1)C(F)(F)F [Compound 343, 3-((1r,4R)—N-((1r,4R)-4-(6-hydroxypyridazin-3-yloxy)cyclohexyl)-4-methylcyclohexanecarboxamido)-5-(4,4,4-trifluoro-3,3-dimethylbut-1-ynyl)thiophene-2-carboxylic acid] | 100 |
| C[C@H]1CC[C@H](C(=O)N(c2cc(C#CC3(C(F)(F)F)CC3)sc2C(=O)O)[C@H]2CC[C@H](Oc3ccncn3)CC2)CC1 [Compound 344, 3-((1r,4R)-4-methyl-N-((1r,4R)-4-(pyrimidin-4-yloxy)cyclohexyl)cyclohexanecarboxamido)-5-(2-(1-(trifluoromethyl)cyclopropyl)ethynyl)thiophene-2-carboxylic acid] | 99.8 |
| C[C@H]1CC[C@H](C(=O)N(c2cc(C#CC3(C(F)(F)F)CC3)sc2C(=O)O)[C@H]2CC[C@H](OC3CCOC3)CC2)CC1 (stereo partly drawn) [Compound 345, 3-((1r,4R)-4-methyl-N-((1r,4R)-4-(tetrahydrofuran-3-yloxy)cyclohexyl)cyclohexanecarboxamido)-5-(2-(1-(trifluoromethyl)cyclopropyl)ethynyl)thiophene-2-carboxylic acid] | 100 |
| C[C@H]1CC[C@H](C(=O)N(c2cc(C#CC3(C(F)(F)F)CC3)sc2C(=O)O)[C@H]2CC[C@@H](OC3CCOC3)CC2)CC1 (stereo partly drawn) [Compound 346, 3-((1r,4R)-4-methyl-N-((1s,4S)-4-(tetrahydrofuran-3-yloxy)cyclohexyl)cyclohexanecarboxamido)-5-(2-(1-(trifluoromethyl)cyclopropyl)ethynyl)thiophene-2-carboxylic acid] | 99.5 |
